Patent publication US6583154B1, “Compounds and methods which modulate feeding behavior and related diseases” (Amgen Inc., priority 1998, dated 2003)
Structures can show the parent of a compound that is named as a salt.

Structure (SMILES)	melting point
Cc1nc(N2CCCCC2)c2[nH]c(-c3ccc(C(F)(F)F)cc3)c(C)c2n1.Cl	> 280 °C
COc1ccc(-c2[nH]c3c(N4CCCCC4)nc(C)nc3c2C)cc1.Cl	> 280 °C
Cc1nc(N2CCCCC2)c2[nH]c(-c3ccccc3)c(F)c2n1.Cl	> 280 °C
COc1ccc(Cc2cc3nc(C)nc(N4CCCCC4)c3[nH]2)cc1.Cl	263 to 267 °C
Cc1nc(N2CCCCC2)c2[nH]c(Cc3ccc(F)cc3)cc2n1.Cl	254 to 255 °C
Cc1nc(N2CCCCC2)c2[nH]c(C)c(-c3ccc(F)cc3)c2n1.Cl	> 280 °C
Cc1nc(N2CCCCC2)c2[nH]c(COc3ccccc3)cc2n1.Cl	238 to 239 °C
Cc1nc(N2CCCCC2)c2[nH]c(-c3ccc(F)c(F)c3)c(C)c2n1.Cl	> 280 °C
Cc1nc(N2CCCCC2)c2sc(C(C)(C)C)cc2[n+]1[O-].Cl	202 to 203 °C (dec.)
Cc1cc(N2CCCCC2)c2oc(-c3ccccc3)cc2n1.Cl	> 280 °C
CCCCc1cc2nc(C)cc(N3CCCCC3)c2o1.Cl	172 to 173 °C
Cc1nc(N2CCCCC2)c2[nH]c(-c3ccc(F)cc3)cc2n1.Cl	287 to 289 °C (dec.)
Cl.c1csc(-c2cc3ncnc(N4CCCCC4)c3[nH]2)c1	> 280 °C
Cl.c1coc(-c2cc3ncnc(N4CCCCC4)c3[nH]2)c1	> 280 °C
Cc1c(-c2ccccc2)[nH]c2c(N3CCCCC3)ncnc12.Cl	281 to 282.5 °C
Cc1nc(N2CCCCC2)c2[nH]c(-c3ccc(N)cc3)cc2n1 (as salt: hydrochloride)	> 280 °C
Cc1nc(N2[C@H](C)CCC[C@@H]2C)c2[nH]c(-c3ccc(F)cc3)cc2n1 (as salt: hydrochloride) (hydrate or solvate)	> 275 °C
CC(C)Cc1nc(N2CCCCC2)c2[nH]c(-c3ccccc3)cc2n1 (as salt: hydrochloride) (hydrate or solvate)	226 to 229.5 °C
COc1nc(N2CCCCC2)c2[nH]c(-c3ccccc3)cc2n1 (as salt: hydrochloride) (hydrate or solvate)	270 to 276 °C
CNc1nc(N2CCCCC2)c2[nH]c(-c3ccccc3)cc2n1 (as salt: hydrochloride) (hydrate or solvate)	195 to 200 °C
c1ccc(-c2cc3nc(N4CCN(c5ccccc5)CC4)nc(N4CCCCC4)c3[nH]2)cc1 (as salt: hydrochloride) (hydrate or solvate)	267.5 to 270 °C
c1ccc(-c2cc3nc(N4CCCC4)nc(N4CCCCC4)c3[nH]2)cc1 (as salt: hydrochloride) (hydrate or solvate)	> 272 °C
Cc1nc(N2CC=CCC2)c2sc(-c3ccccc3)cc2n1 (as salt: hydrochloride) (hydrate or solvate)	279 to 281 °C
Cc1nc(N2CCCCC2)c2oc(-c3ccccc3)cc2n1 (as salt: hydrochloride) (hydrate or solvate)	> 290 °C
Cc1nc(N2CC=CC2)c2[nH]c(-c3ccccc3)cc2n1 (as salt: hydrochloride) (hydrate or solvate) [Example 61, 2-Methyl-6-phenyl-4-(pyrrolinyl)pyrrolo[3,2-d]pyrimidine Hydrochloride Monohydrate]	278 to 278.3 °C
Cc1nc(N2CCCCC2C)c2[nH]c(-c3ccccc3)cc2n1 (stereo not drawn) (as salt: hydrochloride) (hydrate or solvate) [Example 63, 2-Methyl-6-phenyl-4-(2-methylpiperidinyl)pyrrolo(3,2-d)pyrimidine Hydrochloride Monohydrate]	268 to 269 °C
CCC1CCCCN1c1nc(C)nc2cc(-c3ccccc3)[nH]c12 (stereo not drawn) (as salt: hydrochloride) (hydrate or solvate) [Example 64, 2-Methyl-6-phenyl-4-(2-ethylpiperidinyl)pyrrolo[3,2-d]pyrimidine Hydrochloride Hydrate]	228 to 229 °C
